# pIC50: −log10 of the molar value.
# Biological target: T1, human PDE5 (Homo sapiens, UniProt O76074)
# T1 construct: from tissue; host or cells: platelets from fresh blood of human donors (lysate, 10,000 g supernatant)
# Test: Inhibition of the type 5 phosphodiesterase (PDE5) activity, modified SPA test with platelet lysate
# Assay type: biochemical
# Conditions: PDE5 from human platelet lysate, 0.5 μM cGMP
# Method in brief: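 SPA-based cGMP hydrolysis, [3H]cGMP tracer in 0.5 μM cGMP, by sonicated human platelet lysate; motapizone (1 μM) and a PDE2 inhibitor (10 nM) block other PDEs. Reaction 15 min at 37 °C after 5 min preincubation, quenched with beads containing IBMX. IC50 from concentration-effect curves.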
pIC50,-log IC50 (mol/l),Compound
6.60,,"C[C@H](O)C(=O)N1CCC(NC(=O)c2c[nH]c3c(-c4cc(F)c(O)cc4OCC4CC4)ncnc23)CC1 [Example 282, 4-(2-Cyclopropylmethoxy-5-fluoro-4-hydroxy-phenyl)-5H-pyrrolo[3,2-d]pyrimidine-7-carboxylic acid [1-((S)-2-hydroxy-propionyl)piperidin-4-yl]-amide]"
9.91,,"O=C(N[C@H]1CC[C@H](NC(=O)C2CC2)CC1)c1c[nH]c2c(-c3c(OCC4CC4)ccc4c3OCO4)ncnc12 [Example 5, trans-4-(5-Cyclopropylmethoxy-benzo[1,3]dioxol-4-yl)-5H-pyrrolo[3,2-d]pyrimidine-7-carboxylic acid {4-[(1-cyclopropyl-methanoyl)-amino]-cyclohexyl}-amide]"
9.00,,"CC(=O)N1CC[C@@H](NC(=O)c2c[nH]c3c(-c4c(OCC5CC5)ccc5c4OCO5)ncnc23)C1 [Example 15, 4-(5-Cyclopropylmethoxy-benzo[1,3]dioxol-4-yl)-5H-pyrrolo[3,2-d]pyrimidine-7-carboxylic acid ((R)-1-acetyl-pyrrolidin-3-yl)-amide]"
9.47,,"CC(=O)N1CCC[C@@H](NC(=O)c2c[nH]c3c(-c4c(OCC5CC5)ccc5c4OCO5)ncnc23)C1 [Example 49, 4-(5-Cyclopropylmethoxy-benzo[1,3]dioxol-4-yl)-5H-pyrrolo[3,2-d]pyrimidine-7-carboxylic acid ((R)-1-acetyl-piperidin-3-yl)-amide]"
8.80,,"CC(=O)N[C@H]1CC[C@@H](NC(=O)c2c[nH]c3c(-c4ccc(F)cc4OCC4CC4)ncnc23)CC1 [Example 75, cis-4-(2-Cyclopropylmethoxy-4-fluoro-phenyl)-5H-pyrrolo[3,2-d]pyrimidine-7-carboxylic acid (4-acetylamino-cyclohexyl)-amide]"
9.24,,"COCCNC(=O)[C@H]1CC[C@H](NC(=O)c2c[nH]c3c(-c4c(OCC5CC5)ccc5c4OCO5)ncnc23)CC1 [Example 269, trans-4-(5-Cyclopropylmethoxy-benzo[1,3]dioxol-4-yl)-5H-pyrrolo[3,2-d]pyrimidine-7-carboxylic acid [4-(2-methoxy-ethylcarbamoyl)-cyclohexyl]-amide]"
,9.64,"4-(5-Cyclopropylmethoxy-benzo[1,3]dioxol-4-yl)-5H-pyrrolo[3,2-d]pyrimidine-7-carboxylic acid ((R)-1-propionyl-piperidin-3-yl)-amide [Example 47]"
8.97,,"O=C(NCC1CN(C(=O)CO)CCO1)c1c[nH]c2c(-c3c(OCC4CC4)ccc4c3OCO4)ncnc12 (stereo not drawn) [Example 193, 4-(5-Cyclopropylmethoxy-benzo[1,3]dioxol-4-yl)-5H-pyrrolo[3,2-d]pyrimidine-7-carboxylic acid [4-(2-hydroxy-acetyl)morpholin-2-ylmethyl]-amide]"
8.78,,"COc1cc(OCC2CC2)c(-c2ncnc3c(C(=O)NC4CCN(C(=O)CO)CC4)c[nH]c23)cc1F [Example 236, 4-(2-Cyclopropylmethoxy-5-fluoro-4-methoxy-phenyl)-5H-pyrrolo[3,2-d]pyrimidine-7-carboxylic acid [1-(2-hydroxy-ethanoyl)-piperidin-4-yl]amide]"

# Further lines, the compound ahead of its results:
Compound,pIC50,-log IC50 (mol/l)
"CC(=O)N[C@H]1CC[C@H](NC(=O)c2c[nH]c3c(-c4c(OCC5CC5)ccc5c4OCO5)ncnc23)CC1 [Example 4, trans-4-(5-Cyclopropylmethoxy-benzo[1,3]dioxol-4-yl)-5H-pyrrolo[3,2-d]pyrimidine-7-carboxylic acid (4-acetylamino-cyclohexyl)-amide]",9.79,
"COc1ccc(-c2ncnc3c(C(=O)N[C@H]4CC[C@H](NC(=O)C5(O)CC5)CC4)c[nH]c23)c(OCC2CC2)c1 [Example 201, trans-4-(2-Cyclopropylmethoxy-4-methoxy-phenyl)-5H-pyrrolo[3,2-d]pyrimidine-7-carboxylic acid {4-[(1-hydroxy-cyclopropanecarbonyl)-amino]-cyclohexyl}-amide]",9.39,
"CCOc1ccc2c(c1-c1ncnc3c(C(=O)NC4CCN(C(=O)COC)CC4)c[nH]c13)OCO2 [Example 135, 4-(5-Ethoxy-benzo[1,3]dioxol-4-yl)-5H-pyrrolo[3,2-d]pyrimidine-7-carboxylic acid [1-(2-methoxy-acetyl)piperidin-4-yl]-amide]",8.70,
"COCC(=O)N1CCC(NC(=O)c2c[nH]c3c(-c4cc(F)c(OC(F)F)cc4OCC4CC4)ncnc23)CC1 [Example 280, 4-[2-Cyclopropylmethoxy-4-(1,1-difluoro-methoxy)-5-fluoro-phenyl]-5H-pyrrolo[3,2-d]pyrimidine-7-carboxylic acid [1-(2-methoxy-ethanoyl)-piperidin-4-yl]amide]",8.76,
"COCC(=O)N[C@H]1CC[C@H](NC(=O)c2c[nH]c3c(-c4cc(C)ccc4OCC4CC4)ncnc23)CC1 [Example 121, trans-4-(2-Cyclopropylmethoxy-5-methyl-phenyl)-5H-pyrrolo[3,2-d]pyrimidine-7-carboxylic acid [4-(2-methoxy-acetylamino)-cyclohexyl]-amide]",8.75,
"CCOC(=O)N[C@H]1CC[C@H](NC(=O)c2c[nH]c3c(-c4cc(OC)ccc4OCC4CC4)ncnc23)CC1 [Example 66, trans-(4-{[4-(2-Cyclopropylmethoxy-5-methoxy-phenyl)-5H-pyrrolo[3,2-d]pyrimidine-7-carbonyl]-amino}-cyclohexyl)-carbamic acid ethyl ester]",9.20,
"COc1cc(OCC2CC2)c(-c2ncnc3c(C(=O)N[C@H]4CC[C@H](NC(=O)C5(O)CC5)CC4)c[nH]c23)cc1F [Example 235, trans-4-(2-Cyclopropylmethoxy-5-fluoro-4-methoxy-phenyl)-5H-pyrrolo[3,2-d]pyrimidine-7-carboxylic acid {4-[(1-hydroxy-cyclopropanecarbonyl)-amino]-cyclohexyl}-amide]",9.34,
"COCC(=O)N1CCC(NC(=O)c2c[nH]c3c(-c4ccc(OC)cc4OCC4CC4)ncnc23)CC1 [Example 61, 4-(2-Cyclopropylmethoxy-4-methoxy-phenyl)-5H-pyrrolo[3,2-d]pyrimidine-7-carboxylic acid [1-(2-methoxy-ethanoyl)-piperidin-4-yl]amide]",9.28,
"COCCOc1ccc2c(c1-c1ncnc3c(C(=O)N[C@H]4CC[C@@H](NC(=O)[C@H](C)O)CC4)c[nH]c13)OCO2 [Example 262, cis-4-[5-(2-Methoxy-ethoxy)-benzo[1,3]dioxol-4-yl]-5H-pyrrolo[3,2-d]pyrimidine-7-carboxylic acid [4-((S)-2-hydroxy-propionylamino)-cyclohexyl]-amide]",8.03,
"COCC(=O)N[C@H]1CC[C@H](NC(=O)c2c[nH]c3c(-c4cc(F)c(OC)cc4OCC4CC4)ncnc23)CC1 [Example 107, trans-4-(2-Cyclopropylmethoxy-5-fluoro-4-methoxy-phenyl)-5H-pyrrolo[3,2-d]pyrimidine-7-carboxylic acid [4-(2-methoxy-acetylamino)-cyclohexyl]-amide]",9.27,
"CC(=O)N1CCC(NC(=O)c2c[nH]c3c(-c4cc(F)c(OC(F)F)cc4OCC4CC4)ncnc23)CC1 [Example 279, 4-[2-Cyclopropylmethoxy-4-(1,1-difluoro-methoxy)-5-fluoro-phenyl]-5H-pyrrolo[3,2-d]pyrimidine-7-carboxylic acid (1-acetyl-piperidin-4-yl)-amide]",8.63,
"COCC(=O)N[C@H]1CC[C@H](NC(=O)c2c[nH]c3c(-c4cc(OC)ccc4OCC4CC4)ncnc23)CC1 [Example 65, trans-4-(2-Cyclopropylmethoxy-5-methoxy-phenyl)-5H-pyrrolo[3,2-d]pyrimidine-7-carboxylic acid [4-(2-methoxy-acetylamino)-cyclohexyl]-amide]",8.94,
"CCOC(=O)N1CCCC(CNC(=O)c2c[nH]c3c(-c4c(OCC5CC5)ccc5c4OCO5)ncnc23)C1 (stereo not drawn) [Example 31, 3-({[4-(5-Cyclopropylmethoxy-benzo[1,3]dioxol-4-yl)-5H-pyrrolo[3,2-d]pyrimidine-7-carbonyl]-amino}-methyl)-piperidine-1-carboxylic acid ethyl ester]",9.65,
"COCCOc1ccc2c(c1-c1ncnc3c(C(=O)N[C@H]4CC[C@@H](NC(=O)COC)CC4)c[nH]c13)OCO2 [Example 166, cis-4-[5-(2-Methoxy-ethoxy)-benzo[1,3]dioxol-4-yl]-5H-pyrrolo[3,2-d]pyrimidine-7-carboxylic acid [4-(2-methoxy-acetylamino)-cyclohexyl]-amide]",7.99,
"COCC(=O)N1CCCC(CNC(=O)c2c[nH]c3c(-c4c(OCC5CC5)ccc5c4OCO5)ncnc23)C1 (stereo not drawn) [Example 30, 4-(5-Cyclopropylmethoxy-benzo[1,3]dioxol-4-yl)-5H-pyrrolo[3,2-d]pyrimidine-7-carboxylic acid [1-(2-methoxy-acetyl)piperidin-3-ylmethyl]-amide]",9.32,
"O=C(CO)N[C@H]1CC[C@H](NC(=O)c2c[nH]c3c(-c4ccccc4OCC4CC4)ncnc23)CC1 [Example 224, trans-4-(2-Cyclopropylmethoxy-phenyl)-5H-pyrrolo[3,2-d]pyrimidine-7-carboxylic acid [4-(2-hydroxy-acetylamino)-cyclohexyl]-amide]",8.16,
"CC(=O)c1ccc(OCC2CC2)c(-c2ncnc3c(C(=O)NC4CCN(C(=O)[C@H](C)O)CC4)c[nH]c23)c1 [Example 264, 4-(5-Acetyl-2-cyclopropylmethoxy-phenyl)-5H-pyrrolo[3,2-d]pyrimidine-7-carboxylic acid [1-((S)-2-hydroxy-propanoyl)piperidin-4-yl]-amide]",9.66,
"CCOC(=O)N1CC[C@@H](NC(=O)c2c[nH]c3c(-c4c(OCC)ccc5c4OCO5)ncnc23)C1 [Example 137, (R)-3-{[4-(5-Ethoxy-benzo[1,3]dioxol-4-yl)-5H-pyrrolo[3,2-d]pyrimidine-7-carbonyl]-amino}-pyrrolidine-1-carboxylic acid ethyl ester]",8.65,

# From patent publication US8445501B2, “Substituted 7-carboxamido-pyrrolo[3,2-d]pyrimidines” (Takeda GmbH, priority 2008, dated 2013)
